Measurements published in patent US20240025906A1 (NEURON23, INC., priority 2022, published 2024).
pIC50, pKd: −log10 of the molar value. Like-named read-outs stand apart in the source and are kept apart here.

What was measured:
TYK2 JH2 = biological target: T1, TYK2 JH2 (Homo sapiens, UniProt P29597); test: TYK2 JH2 binding assay (KINOMEscan KdELECT competitive binding); details: TYK2 JH2 domain
T1 construct: purchased DiscoverX (KINOMEscan KdELECT service); host or cells: E. coli BL21-derived (T7 phage display) or HEK-293
How it was run: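 Kd values come from qPCR measurement of kinase retained on an immobilized-ligand resin after 1 h room-temperature competition with compound in an 11-point, 3-fold series.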

[1] = system: JAK1/TYK2 pSTAT5 (Tyr694/699) in THP-1 cell line; test: IFNa-stimulated JAK1/TYK2 pSTAT5 (Tyr694/699) inhibition cellular assay, AlphaLISA; type: cell-based; details: Homo sapiens, THP-1 cells, AlphaLISA (Assay B)
How it was run: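 pSTAT5 (Tyr694/699) in lysates quantified by AlphaLISA (615 nm) after 30 min IFNa stimulation (100 ng/mL stock) of THP-1 cells. The cells, 2e4 per well in HBSS, had first been exposed 1 h at 37° C. to eight 6-fold compound dilutions, 10000 down to 0.04 nM final. IC50 fitted by 4PL regression, bottom 0, Hill slope −1.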

[2] = DiscoverX KINOMEscan KdELECT (Assay A), read-out: Biochemical TYK2_DiscoverX_JH2_BND_Kd
[3] = IFNa-stimulated, read-out: Cellular_THP1_IFNa-pSTATS_TYK2
[4] = KINOMEscan KdELECT (Assay A), read-out: Biochemical TYK2_DiscoverX_JH2_BND_Kd
[5] = IFNa-stimulated pSTAT5 (Tyr694/699), read-out: Cellular_THP1_IFNa-pSTATS_TYK2
[6] = KINOMEscan KdELECT (Assay A), read-out: Biochemical TYK2_JH2_Kd
[7] = IFNa-stimulated, read-out: Cellular THP1_IFNa-pSTATS_IC50

T1 sequence (P29597 589-875 limits assumed): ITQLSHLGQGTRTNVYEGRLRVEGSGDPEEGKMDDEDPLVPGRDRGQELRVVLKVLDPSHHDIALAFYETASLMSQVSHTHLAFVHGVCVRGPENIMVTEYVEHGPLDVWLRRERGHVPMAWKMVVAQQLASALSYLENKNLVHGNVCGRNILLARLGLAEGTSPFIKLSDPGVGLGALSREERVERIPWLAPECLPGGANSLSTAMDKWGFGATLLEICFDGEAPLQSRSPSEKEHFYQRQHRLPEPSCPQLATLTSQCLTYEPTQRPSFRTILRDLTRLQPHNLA

| SMILES | pIC50 [1, 3] | pKd (TYK2 JH2; [4]) | also measured |
| --- | --- | --- | --- |
| [2H]C([2H])([2H])Nc1ncc(-c2nc3c(OC)cccc3o2)c2cc(NC(=O)C3CC3)ncc12 [Example 363, N-(5-(4-methoxybenzo[d]oxazol-2-yl)-8-((methyl-d3)amino)-2,7-naphthyridin-3-yl)cyclopropanecarboxamide] | ≥ 6.30 |  | pKd (TYK2 JH2; [2]): ≥ 7.00 |
| CNc1ncc(-c2cn3ccc(OC)cc3n2)c2cc(NC(=O)C3CC3)ncc12 [Example 1025] |  | ≥ 7.00 | pIC50 [1, 5]: < 6.30 |
| CNc1ncc(-c2nc3cc(N4CCOC(C(F)F)C4)ccc3o2)c2cc(NC(=O)[C@H]3C[C@H]3C)ncc12 (stereo partly drawn) [Example 1057, (1S,2R)—N-(5-(5-(2-(difluoromethyl)morpholino)benzo[d]oxazol-2-yl)-8-(methylamino)-2,7-naphthyridin-3-yl)-2-methylcyclopropane-1-carboxamide] |  | ≥ 7.00 | pIC50 [1, 5]: ≥ 6.30 |
| CNc1ncc(C#Cc2ccc(OC)cn2)c2cc(NC(=O)[C@H]3C[C@H]3CF)ncc12 (single isomer, unassigned) [Example 822] | ≥ 6.30 | ≥ 7.00 |  |
| CNc1ncc(C#Cc2ccc3oc(CO)cc3c2)c2cc(NC(=O)C3CC3)ncc12 [Example 642, N-(5-((2-(hydroxymethyl)benzofuran-5-yl)ethynyl)-8-(methylamino)-2,7-naphthyridin-3-yl)cyclopropanecarboxamide] | ≥ 6.30 | ≥ 7.00 |  |
| CNc1ncc(C#Cc2ccc3c(cnn3C)c2)c2cc(NC(=O)C3CC3)ncc12 [Example 649, N-(5-((1-methyl-1H-indazol-5-yl)ethynyl)-8-(methylamino)-2,7-naphthyridin-3-yl)cyclopropanecarboxamide] | ≥ 6.30 | ≥ 7.00 |  |
| CNc1ncc(-c2cnn(CC(F)(F)F)c2)c2cc(NC(=O)C3CC3)ncc12 [Example 38, N-(8-(methylamino)-5-(1-(2,2,2-trifluoroethyl)-1H-pyrazol-4-yl)-2,7-naphthyridin-3-yl)cyclopropanecarboxamide] |  |  | pKd (TYK2 JH2; [6]): ≥ 7.00; pIC50 [1, 7]: < 6.30 |
| CNc1ncc(-c2nc3cc(N4CCOC(C(C)(F)F)C4)ccc3o2)c2cc(NC(=O)C3CC3)ncc12 (stereo not shown) [Example 330, N-(5-(5-(2-(1,1-difluoroethyl)morpholino)benzo[d]oxazol-2-yl)-8-(methylamino)-2,7-naphthyridin-3-yl)cyclopropanecarboxamide] | ≥ 6.30 |  | pKd (TYK2 JH2; [2]): ≥ 7.00 |
| CCc1nc(C)c(C#Cc2cnc(NC)c3cnc(NC(=O)C4CC4)cc23)s1 [Example 961, N-(5-((2-ethyl-4-methylthiazol-5-yl)ethynyl)-8-(methylamino)-2,7-naphthyridin-3-yl)cyclopropanecarboxamide] | ≥ 6.30 | ≥ 7.00 |  |
| CNc1ncc(-c2nc3cc(N4CCOC(CO)C4)ccc3o2)c2cc(NC(=O)C3CC3)ncc12 (stereo not shown) [Example 333, N-(5-(5-(2-(hydroxymethyl)morpholino)benzo[d]oxazol-2-yl)-8-(methylamino)-2,7-naphthyridin-3-yl)cyclopropanecarboxamide] | ≥ 6.30 |  | pKd (TYK2 JH2; [2]): ≥ 7.00 |
| CNc1ncc(C#Cc2ccc(OC3CN(C(C)=O)C3)cn2)c2cc(NC(=O)C3CC3)ncc12 [Example 735, N-(5-((5-((1-acetylazetidin-3-yl)oxy)pyridin-2-yl)ethynyl)-8-(methylamino)-2,7-naphthyridin-3-yl)cyclopropanecarboxamide] | ≥ 6.30 | ≥ 7.00 |  |
| CNc1ncc(-c2nc3cc(N4CC[C@@H](F)C4)ccc3o2)c2cc(NC(=O)C3CC3)ncc12 (single isomer, unassigned) [Example 944] | ≥ 6.30 | ≥ 7.00 |  |
| CNc1ncc(C#Cc2ccc3c(c2)OCC(C)O3)c2cc(NC(=O)C3CC3)ncc12 (stereo not shown) [Example 977, N-[8-(methylamino)-5-[2-(2-methyl-2,3-dihydro-1,4-benzodioxin-6-yl)ethynyl]-2,7-naphthyridin-3-yl]cyclopropanecarboxamide] | ≥ 6.30 | ≥ 7.00 |  |
| CCNC(=O)c1ccc2oc(-c3cnc(NC)c4cnc(NC(=O)C5CC5)cc34)nc2c1 [Example 1100, 2-(6-(cyclopropanecarboxamido)-1-(methylamino)-2,7-naphthyridin-4-yl)-N-ethylbenzo[d]oxazole-5-carboxamide] |  | ≥ 7.00 | pIC50 [1, 5]: ≥ 6.30 |
| CNc1ncc(-c2nc3ccc(N4CCOCC4)cn3n2)c2cc(NC(=O)C3(F)CC3)ncc12 [Example 527, 1-fluoro-N-(8-(methylamino)-5-(6-morpholino-[1,2,4]triazolo[1,5-a]pyridin-2-yl)-2,7-naphthyridin-3-yl)cyclopropane-1-carboxamide] | ≥ 6.30 |  | pKd (TYK2 JH2; [2]): ≥ 7.00 |
| CNc1ncc(C#Cc2ccc(OC)cn2)c2cc(NC(=O)C3(F)CC3)ncc12 [Example 743, 1-fluoro-N-(5-((5-methoxypyridin-2-yl)ethynyl)-8-(methylamino)-2,7-naphthyridin-3-yl)cyclopropane-1-carboxamide] | ≥ 6.30 | ≥ 7.00 |  |
| CNc1ncc(C#Cc2ccc(OC)cc2Cl)c2cc(NC(=O)C3CC3)ncc12 [Example 635, N-(5-((2-chloro-4-methoxyphenyl)ethynyl)-8-(methylamino)-2,7-naphthyridin-3-yl)cyclopropanecarboxamide] | ≥ 6.30 | ≥ 7.00 |  |
| CNc1ncc(C#Cc2ccc(OC[C@H]3COCCO3)cc2)c2cc(NC(=O)C3CC3)ncc12 [Example 741, (R)—N-(5-((4-((1,4-dioxan-2-yl)methoxy)phenyl)ethynyl)-8-(methylamino)-2,7-naphthyridin-3-yl)cyclopropanecarboxamide] | ≥ 6.30 | ≥ 7.00 |  |
| CNc1ncc(-c2nc3ccc(N4C[C@@H](C)O[C@@H](C)C4)cn3n2)c2cc(NC(=O)[C@H]3C[C@H]3C)ncc12 [Example 555, (1S,2R)-N-(5-(6-((2R,6S)-2,6-dimethylmorpholino)-[1,2,4]triazolo[1,5-a]pyridin-2-yl)-8-(methylamino)-2,7-naphthyridin-3-yl)-2-methylcyclopropane-1-carboxamide] | ≥ 6.30 |  | pKd (TYK2 JH2; [2]): ≥ 7.00 |
| CNc1ncc(-c2csc(C)n2)c2cc(NC(=O)C3CC3)ncc12 [Example 81, N-(8-(methylamino)-5-(2-methylthiazol-4-yl)-2,7-naphthyridin-3-yl)cyclopropanecarboxamide] |  |  | pKd (TYK2 JH2; [6]): ≥ 7.00; pIC50 [1, 7]: < 6.30 |
| CNc1ncc(C#Cc2ccc3nnn(CCCOC)c3c2)c2cc(NC(=O)C3CC3)ncc12 [Example 688, N-(5-((1-(3-methoxypropyl)-1H-benzo[d][1,2,3]triazol-6-yl)ethynyl)-8-(methylamino)-2,7-naphthyridin-3-yl)cyclopropanecarboxamide] | ≥ 6.30 | ≥ 7.00 |  |
| CNc1ncc(-c2nc3ccc(OC)cc3s2)c2cc(NC(=O)C3CC3)ncc12 [Example 933, N-(5-(6-methoxybenzo[d]thiazol-2-yl)-8-(methylamino)-2,7-naphthyridin-3-yl)cyclopropanecarboxamide] | ≥ 6.30 | ≥ 7.00 |  |
| CNc1ncc(C#Cc2ccc3nc(COC)n(C)c3c2)c2cc(NC(=O)C3CC3)ncc12 [Example 692, N-(5-((2-(methoxymethyl)-1-methyl-1H-benzoimidazol-6-yl)ethynyl)-8-(methylamino)-2,7-naphthyridin-3-yl)cyclopropanecarboxamide] | ≥ 6.30 | ≥ 7.00 |  |
